From patent publication US20260027226A1 (Pheon Therapeutics Ltd, priority 2022, published 2026)
“Also recorded” adds a separate entry of the source.

Key:
[1] = Comparative repeat-dose rat toxicity study; assay type: in vivo; settings: DAR 8 on Trastuzumab backbone, 20 or 60 mg/kg; for tolerability: IV once every 3 weeks, two doses
[2] = cited from earlier work
Papain = Papain (a Cathepsin B surrogate); settings: up to 96 hours
HexA DNA fragment = test: DNA footprinting; assay type: binding; settings: for DNA-binding site sequence: X any base, W adenine or thymine
Procedure: Footprinting reactions were performed as using previously described methods using the DNA fragments HexA and HexB, which together contain all 64 symmetrical hexanucleotide sequences, and MS1 that contains all possible […] tetranucleotide sequences. The DNA fragments were obtained by cutting the parent plasmids with HindIII and SacI (for HexA and MS1) or EcoRI and PstI (for HexB), and were labelled at the “-end of the HindIII or EcoRI sites with [α-^32P]dATP using reverse transcriptase or exo− Klenow fragment. After gel purification, the radiolabelled DNA was dissolved in 10 mM Tris-HCl pH 7.5 containing 0.1 mM EDTA, at a concentration of about 10 c.p.s per μL as determined on a hand held Geiger counter. 1.5 μL of radiolabelled DNA was mixed with 1.5 μL ligand that had been freshly diluted in 10 mM Tris-HCl pH 7.5, containing 10 mM NaCl. The complexes were left to equilibrate for at least 12 hours before digesting with 2 μL dNase I (final concentration about 0.01 units/mL). The reactions were stopped after 1 minute by adding 4 μL of formamide containing 10 mM EDTA and bromophenol blue (0.1% w/v). The samples were then heated at 100° C. for 3 minutes before loading onto 8% denaturing polyacrylamide gels containing 8 M urea. Gels were fixed in 10% acetic acid, transferred to 3 MM paper, dried and exposed to a phosphor screen overnight, before analysing with a Typhoon phosphorimager
The DNA sequence selectivity profile of the molecules was investigated using a modification of a previously established DNA footprinting assay. Following an overnight incubation of the ligand-DNA complexes, the mixture was mixed with strand separation buffer containing 10 mM EDTA, 10 mM NaOH, 0.1% bromophenol blue, 80% formamide and incubated at 100° C. for 3 min. The mixture was then immediately cooled on ice and run on an 8% denaturing gel. […] The possible adducts formed within the HexA sequences are shown in FIGS. 20 and 21, respectively.

[3] = tested on: linear double-stranded TyrT fragment; test: DNA cross-linking assay; assay type: biochemical; settings: overnight incubation at 37° C., 10 μM to 0.1 nM
Procedure: After overnight incubation, the samples were mixed with 7 μL loading solution (80% formamide containing 10 mM EDTA, 10 mM NaOH, 0.1% bromophenol blue) and incubated at 65° C. for 5 min. Control 1 (C1) for native double-stranded DNA consisted of 1.5 μL labelled DNA, 1.5 μL 10 mM Tris-HCl, pH 7.5 containing 0.1 mM EDTA and 7 μL 1× loading dye. Control 2 (C2) for denatured native single-stranded DNA was composed of 1.5 μL labelled DNA, 1.5 μL 10 mM Tris-HCl, pH 7.5 containing 0.1 mM EDTA which was incubated at 65° C. for 5 min. Control 3 (C3) for native double-stranded DNA consisted of 1.5 μL labelled DNA, 1.5 μL 10 mM Tris-HCl, pH 7.5 containing 0.1 mM EDTA and 7 μL SSB. Control 4 (C4) for denatured native single-stranded DNA was composed of 1.5 μL labelled DNA, 1.5 μL 10 mM Tris-HCl, pH 7.5 containing 0.1 mM EDTA and 7 μL SSB which was incubated at 65° C. for 5 min. Separation was performed on a 7.5% denaturing polyacrylamide gel (20 cm long, 0.3 mm thick) at 500V for about 4 h until the dye reached the bottom of the gel. The gel plates were then separated, the gels fixed by immersing in 10% (v/v) acetic acid, followed by transfer to Whatmann 3 MM paper and drying under vacuum at 80° C. […]
The ability of 26 to cross-link DNA was evaluated using an assay involving a linear double-stranded TyrT fragment (FIG. 17). […]

[4] = Buffer without S9 (50 mM Na-acetate, pH 5.0); settings: 37° C., up to 24 h
[5] = Pooled liver S9 fraction, 50 mM Na-acetate, pH 5.0; settings: 37° C., up to 24 h
[6] = Control incubation in buffer without S9; assay type: in vitro ADME
Procedure: The control incubations include each ADC without the addition of S9.

## CC[C@@]1(O)C(=O)OCc2c1cc1n(c2=O)Cc2c-1nc1cc(F)c(C)c3c1c2[C@@H](NC(=O)CO)CC3 [Dxd, reference compound]
[1]
  tolerability: well tolerated

## Adcetris
[2]
  ADC cyno t112: 45 to 72 h

## 1-(3-(2,5-Dioxo-2,5-dihydro-1H-pyrrol-1-yl)propanamido)-N-((2S)-1-(((2S)-1-(((1S,9S)-9-ethyl-5-fluoro-9-hydroxy-4-methyl-10,13-dioxo-2,3,9,10,12,13,13a,14-octahydro-1H-benzo[de]pyrano[″,″:5,6]indeno[1,2-b]quinolin-1-yl)amino)-1-oxopropan-2-yl)amino)-3-methyl-1-oxobutan-2-yl)-3,6,9,12,15,18,21,24-octaoxaheptacosan-27-amide
Papain
  fragment found: Val-Ala-Exatecan
  not cleaved: the free payload was not liberated

## C=CCOC(=O)N1c2cc(OCCCC(=O)Nc3cc(C(=O)Nc4ccc(NC(=O)C(F)(F)F)cc4)n(C)c3)c(OC)cc2C(=O)N2CCCC[C@H]2C1OC1CCCCO1 (stereo partly drawn) [Formula 17, Allyl (6aS)-2-methoxy-3-(4-((1-methyl-5-((4-(2,2,2-trifluoroacetamido)phenyl)carbamoyl)-1H-pyrrol-3-yl)amino)-4-oxobutoxy)-12-oxo-6-((tetrahydro-2H-pyran-2-yl)oxy)-6,6a,7,8,9,10-hexahydrobenzo[e]pyrido[1,2-a][1,4]diazepine-5(12H)-carboxylate]
HexA DNA fragment
  DNA-binding site sequence: XGXWWWW

## COc1cc2c(cc1OCCCC(=O)Nc1cc(C(=O)Nc3ccc(-c4cc(C(=O)Nc5ccc(N)cc5)n(C)c4)cc3)n(C)c1)N=C[C@@H]1CCCCN1C2=O [Formula 26, (S)—N-(4-aminophenyl)-4-(4-(4-(4-((2-methoxy-12-oxo-6a,7,8,9,10,12-hexahydrobenzo[e]pyrido[1,2-a][1,4]diazepin-3-yl)oxy)butanamido)-1-methyl-1H-pyrrol-2-carboxamido)phenyl)-1-methyl-1H-pyrrol-2-carboxamide]
[3]
  DNA interstrand cross-linking: Cross-links are not detectable at any concentration
HexA DNA fragment; DNase I footprinting
  preferred binding sites in HexA: only five preferred sites
HexA DNA fragment
  DNA-binding site sequence: XGXWWWW

## COc1cc2c(cc1OCCCC(=O)Nc1cc(C(=O)Nc3ccc(N)cc3)n(C)c1)N=C[C@@H]1CCCCN1C2=O [Formula 19, (S)—N-(4-Aminophenyl)-4-(4-((2-methoxy-12-oxo-6a,7,8,9,10,12-hexahydrobenzo[e]pyrido[1,2-a][1,4]diazepin-3-yl)oxy)butanamido)-1-methyl-1H-pyrrol-2-carboxamide]
[3]
  DNA interstrand cross-linking: incapable of cross-linking DNA

## Trastuzumab-Mal-GGFG-Dxd
[4]
  fragment found: DXd, minor, 0 min; also recorded: exatecan, minor
[5]; Cynomolgus monkey
  fragment found: DXd, minor, 0 min; also recorded: Cys-Mc-GGFG-DXd; also recorded: exatecan, minor
[5]; Human
  fragment found: DXd, 0 min; also recorded: Cys-Mc-GGFG-DXd; also recorded: exatecan, minor

## CC[C@@]1(O)C(=O)OCc2c1cc1n(c2=O)Cc2c-1nc1cc(F)c(C)c3c1c2[C@@H](NC(=O)[C@H](C)NC(=O)[C@@H](NC(=O)CCOCCOCCOCCOCCOCCOCCOCCOCCNC(=O)CCN1C(=O)C=CC1=O)C(C)C)CC3 [Compound 30, 1-(3-(2,5-Dioxo-2,5-dihydro-1H-pyrrol-1-yl)propanamido)-N-((2S)-1-(((2S)-1-(((1S,9S)-9-ethyl-5-fluoro-9-hydroxy-4-methyl-10,13-dioxo-2,3,9,10,12,13,13a,14-octahydro-1H-benzo[de]pyrano[″,″:5,6]indeno[1,2-b]quinolin-1-yl)amino)-1-oxopropan-2-yl)amino)-3-methyl-1-oxobutan-2-yl)-3,6,9,12,15,18,21,24-octaoxaheptacosan-27-amide]
[1]
  changes in hemopoietic system / red cell parameters: negligible effects
  tolerability: well tolerated
[6]; Buffer without S9, 180 min
  LC/MS peak area of released payload (exatecan; 4NH2-exatecan; DXd; DM1): 26,179
[6]; Buffer without S9, 360 min
  LC/MS peak area of released payload (exatecan; 4NH2-exatecan; DXd; DM1): 51,267
[6]; Buffer without S9, 1440 min
  LC/MS peak area of released payload (exatecan; 4NH2-exatecan; DXd; DM1): 59,452
